{"source": "patent US9512407B2", "about": "“Cells and methods for obtaining them” (GENOME RESEARCH LIMITED, priority 2009, dated 2016)", "key": {"[1]": {"tested_on": "Oct4-IRES-Puro-Egfp MEFs", "assay": "Reprogramming of Oct4 reporter MEFs to iPSCs by PB transposition of Yamanaka factors (colony number)", "format": "cell-based, mouse", "from_the_text": "To investigate the role of RA signalling in reprogramming, we cloned cDNAs of Oct4, Sox2, Klf4, cMyc, Rara and Rarg into a PB-MSCV vector where expression of the cDNAs was controlled by the MSCV LTR (FIG. 6A). Although exogenous c-Myc is not essential for reprogramming, omission of it reduces reprogramming efficiency and delays the process (23, 30). The individual PB-MSCV-cDNA vectors were co-transfected with a PB transposase plasmid into MEFs (FIG. 1A). PB transposition facilitates efficient integration of the PB transposon into the genome, thus ensuring stable expression of the cDNAs (31).\n(§1) ES cell pluripotency requires proper levels of Oct4 (Pou5f1) expression (32), and activation of Oct4 is known to be a crucial event in reprogramming (3). To monitor activation of the endogenous Oct4 locus in reprogramming and to allow unbiased assessment of iPSC quality, we made an Oct4 reporter mouse line where the IRES-Puro-GFP cassette was targeted to the 3′UTR of the Oct4 locus (FIG. 6B). The targeted ES cells were resistant to 2.0 μg/ml Puromycin (Puro) selection. These ES cells were not visibly green under fluorescent microscope but could be distinguished by flow cytometry (FIG. 6C). […] MEFs from the Oct4 reporter mice were thus used in all the MEF reprogramming experiments, and consequently, reprogramming and iPSC quality could be conveniently monitored and assessed by either Puro resistance or GFP expression in iPSCs.\nMEFs were prepared from 12.5 d.p.c. Oct4-IRES-Puro-Egfp embryos. To reduce embryo-to-embryo difference, MEFs from several embryos with the same genotype were mixed together for expansion in M10 media. MEFs were passaged once before they were counted, aliquoted and frozen down. Before electroporation, 1×10^6 MEFs were plated onto one gelatinized 15-cm tissue culture plate. When MEFs were 70-80% confluent, they were typsinized and collected for electroporation. M10: knockout DMEM, 10% foetal bovine serum (FBS, Hyclone), 1×GPS, 1× non-essential amino acids (NEAA, Invitrogen).\nMEFs transfection was performed using an Amaxa machine (Lonza) according to the manufacturer's protocol (program A-023). After electroporation, MEFs were seeded in M15 plus LIF on STO feeders. For Tet-On experiments, M15 containing Doxycycline (1.0 μg/ml) was added 24 hours after transfection and was changed every other day. iPSC colonies were usually picked at day 7 to day 10 to 96 well plates and cells were expanded according to standard mouse ES cell culture conditions.\nMouse and human iPSC colonies were visualized by alkaline phosphatase staining using the Leukocyte Alkaline Phosphatase kit (Sigma).\nFIG. 1. RA signalling in reprogramming. A. Schematic of the reprogramming strategy by piggyBac (PB) transposition. Oct4 reporter MEFs were transfected with the PB-MSCV-cDNA transposon and transposase plasmids, and were plated directly onto STO feeders. ES-like colonies usually appeared in three weeks. M10 and M15 are media for MEFs and ES cells, respectively. B-C. Expressing Rara or Rarg, together with the four Yamanaka factors, drastically promoted reprogramming while inhibiting RA signalling by expressing Rara-DN blocked reprogramming. iPSC colonies were visualized by alkaline phosphatase staining. The reprogramming control was PB-PGK-Neo plus Yamanaka factors. **: P<0.005; ***: P<0.0005. FL: full-length cDNA; DN: dominant-negative form. D. Temporal requirement of RA signalling in reprogramming. Agonist of Rarg (CD437) was added at various stages of reprogramming. […]"}, "[2]": {"tested_on": "Oct4 locus", "assay": "iPSC quality by Puro resistance and GFP expression from the Oct4 locus (flow cytometry)", "format": "cell-based, mouse", "details": "for quality of iPS cells, measured by FACS: agonist with four Yamanaka factors, up to 8 days", "procedure": "as §1\nExpression of the endogenous Oct4 is unstable in iPSCs reprogrammed by the four Yamanaka factors (11). […] Further analysis confirmed their partially reprogrammed status: low levels of endogenous pluripotency gene expression (FIG. 1E), and retention of substantial DNA methylation in the differentially methylated regions (DMRs) in the Nanog and Rex1 promoters (FIG. 1F). On the other hand, a small number of colonies were obtained which were resistant to 2.0 μg/ml Puro, and were similar to ES cells regarding pluripotency gene expression, demethylation at the Nanog and Rex1 promoters, and GFP expression (FIG. 1E-F and FIG. 6E). […] In subsequent experiments, we used resistance to 2.0 μg/ml Puro or GFP expression as surrogate criteria for pluripotency quality of mouse primary iPSCs reprogrammed from Oct4-Puro-GFP MEFs.\nMouse iPSCs growing in 96 well feeder plates were trypsinized and resuspended in M15. iPSCs were spun down at 1,000 rpm for 3 minutes, and the medium was removed by putting the plate upside down on tissue. iPSCs were resuspended in PBS and analyzed by Cytomics FC-500 (Beckman Coulter).\nWe cloned the four Yamanaka factors into the PB transposons separately where expression of each cDNA was controlled by the LTR of MSCV (PB-MSCV-cDNAs, FIG. 6c). These four transposons and the PB transposase (PBase) plasmid were subsequently transfected into Oct4-IRES-Puro-Egfp MEFs. iPS cell colonies resembling those of regular ES cells appeared in three weeks. Most iPS colonies survived 1.0 or 1.5 μg/ml Puro but very few were able to grow in 2.0 μg/ml Puro. […] RT-PCR and DMR sequencing confirmed that these iPS clones growing in 2.0 μg/mL Puro were more similar to regular ES cells than those clones selected by 1.0 or 1.5 μg/mL Puro in terms of pluripotent gene expression and DNA methylation at promoters of these genes (data not shown). […] We thus used 2.0 μg/mL or higher concentration of Puro in combination of flow cytometry to quantitatively evaluate iPS cell quality in the subsequent experiments."}, "[3]": {"tested_on": "Rex1-Puro-IRES-Egfp knock-in mouse ES cell line", "assay": "RA induced ES cell differentiation, Puro selection", "format": "cell-based", "details": "all-trans retinoic acid; antagonist added or cDNA over-expressed", "from_the_text": "Insertion of this transposon into the mouse genome can either up-regulate genes near the insertion sites or disrupt them, depending on the structure of the insertion allele. To efficiently eliminate differentiated ES cells in the culture, we targeted the Puro-IRES-Egfp cassette to the Rex1 locus (FIG. 12b). Consequently, undifferentiated ES cells would be resistant to Puromycin (Puro) selection and GFP^+ in flow cytometry, while differentiated cells would be killed by Puro selection and become GFP^− due to rapid lose of Rex1 expression upon differentiation.\nA library of mutant ES cells were differentiated with 1.0 μM all-trans retinoic acid (RA) for 4 days and subsequently selected with Puromycin (FIG. 12c). Several Pura^r ES cell clones were identified from independent mutant ES cell pools. Splinkrette PCR analysis identified PB integration sites in genes encoding Rarg, Pparg and Gclc. For Pparg, PB insertion caused over-expression of the entire protein coding sequences. In contrast, Rarg locus had four independent PB insertions, all found in intron 9 (the last intron) (FIG. 12d). These PB insertions caused truncation of Rarg which misses amino acids encoded by exon 10. […] This truncated Rarg likely functioned as a dominant negative form of wild type Rarg (Rarg-DN).\nFIG. 12. […]"}, "[4]": {"tested_on": "Dox-independent human iPSCs", "assay": "Signalling dependency of human iPSCs (growth, qRT-PCR)", "format": "cell-based", "details": "KSR-2i-LIF media", "procedure": "In contrast to dependence on Lif/Jak/Stat pathway for pluripotency maintenance in mouse ES cells, conventional human ES cells derived from embryos are cultured in media containing FGF2 (basic FGF), and LIF alone is insufficient to maintain pluripotency (44, 45). […] Conventional human ES cells are resistant to JAK inhibitor (JAKi) but are differentiated in the presence of BMP4. […] Finally, compared to human ES cells, our human iPSCs expressed lower levels of lineage specific genes such as PAX6, GATA6, and SOX17 in KSR-2i-LIF media (FIG. 5H).\nHuman iPSCs reprogrammed by PB-CAG vectors were cultured in M15 media, with […] human recombinant LIF. Human iPSCs reprogrammed by PB-TRE vectors were maintained in DMEM/F12 with 1×GPS (Invitrogen), 20% Knockout Serum Replacement (Invitrogen), 1×NEAA, 0.1 mM β-mercaptoethanol (β-ME, Sigma) and two inhibitors, CHIR99021 (5 μM) and PD0325901 (1 μM).\nRNA was isolated using the RNeasy Mini Kit (Qiagen). The samples were subsequently quantified and treated with gDNA WipeOut. First-strand cDNA was prepared using the QuantiTect Reverse Transcription Kit (Qiagen). For each RT-PCR reaction, we used 50-100 ng of cDNA and primers listed in Supplementary Table 5. Standard PCR conditions were: 94° C. for 30 s, 60° C. for 30 s, 68° C. for 30 s; X 30 cycles. For real-time PCR, we used Taqman Gene Expression Assays. Taqman probes were either purchased from Applied Biosciences (Supplementary Table 6). All quantitative PCR was performed in a […] Fast Real-Time PCR System (Applied Biosciences). Mouse gene expression was determined relative to mouse Gadph using the ΔCt method. Human gene expression was determined relative to human GADPH gene using the ΔCt method.\nFIG. 5. Production and characterization of Dox-independent unique human iPSCs. A. Conservation of RAREoct sequence in several mammalian species. B. Reprogramming HDFn cells using the Tet-On six-factor platform. PB-TRE-cDNA transposon, PB-CAG-rtTA and transposase plasmids were transfected into HDFs which were plated onto STO feeders. Dox (2.0 μg/ml) was added 24 hours post transfection. Dox induction usually lasted for 15-20 days. Colonies were picked for expansion at up to 30 days after transfection. Alternatively, immediately once Dox was removed, colonies were trypsinized and re-plated to a new feeder plate for secondary colony formation. C. Typical human iPSC colony morphology and AP staining. Scale bars: 10.0 μm. D. qRT-PCR analysis of pluripotency genes in parental HDFn, human iPSCs and H1 hESC cells. HiPS15-5 and -10 were two Dox-independent iPSC lines generated from one transfection. […] H. Signalling dependency of human iPSCs measured by gene expression (qRT-PCR). […] Quantitative analysis of gene expression was performed relative to GADPH. […]"}}, "note": "“Also recorded” adds a separate entry of the source."}
{"molecule": "CC1(C)CCC(C)(C)c2cc(C(=O)Nc3ccc(C(=O)O)cc3)ccc21", "note": "[Am580]", "values": [{"measurement": "reprogramming efficiency", "setting": "[1]; administrated for 8 days, with four Yamanaka factors", "result": "improved reprogramming efficiency"}, {"measurement": "quality of iPS cells, measured by FACS", "setting": "[2]", "result": "little effect"}]}
{"molecule": "O=C(O)c1ccc2cc(-c3ccc(O)c(C45CC6CC(CC(C6)C4)C5)c3)ccc2c1", "note": "[CD437]", "values": [{"measurement": "iPS cell colony number", "setting": "[1]; 100 nM for up to eight day, with four Yamanaka factors", "result": "greatly increased"}, {"measurement": "reprogramming of MEFs to iPSCs", "setting": "[1]; added to culture media at recommended concentration for 4 or 8 days, with four Yamanaka factors", "result": "drastically increased"}, {"measurement": "iPS colony number", "setting": "[1]; treatment beyond 8 days (day 1-12)", "result": "substantially reduced"}, {"measurement": "reprogramming efficiency", "setting": "[1]; treatment beyond 8 days after transfection", "result": "reduced reprogramming efficiency"}, {"measurement": "GFP expression from the Oct4 locus in colonies (iPSC quality)", "setting": "[2]; CD437 day 1-4", "result": "expressed GFP; also recorded: Improvement of iPSC quality"}, {"measurement": "survival of Puro selection", "setting": "[2]; CD437 day 1-4, 2.0 μg/ml Puro", "result": "survived 2.0 μg/ml Puro selection"}, {"measurement": "quality of iPS cells, measured by FACS", "setting": "[2]", "result": "significantly improved"}]}
{"molecule": "COCCOCOc1cc2ccc(-c3ccc(C(=O)O)cc3)cc2cc1C12CC3CC(CC(C3)C1)C2", "note": "[CD2665]", "values": [{"measurement": "ES cell differentiation induced by RA", "setting": "[3]", "result": "block ES cell differentiation"}, {"measurement": "quality of partially reprogrammed clones", "setting": "[2]; 10 μM, two independent partially reprogrammed clones", "result": "significantly improved"}, {"measurement": "effect on quality of partially reprogrammed clones", "setting": "[2]; 10 μM, used together with 5-Aza", "result": "more obvious"}, {"measurement": "GFP status of partially reprogrammed clones", "setting": "[2]; after treatment for 4 days, with or without 5-Aza", "result": "largely GFP negative"}]}
{"molecule": "CC(C)(C)c1nc2c3cc[nH]c(=O)c3c3cc(F)ccc3c2[nH]1", "note": "[JAK inhibitor]", "values": [{"measurement": "growth and pluripotency gene expression of human iPSCs in the presence of the agent", "setting": "[4]", "result": "lost expression of OCT4 and NANOG and were rapidly differentiated"}]}
{"molecule": "CCCCCCCOc1cc2c(cc1/C(C)=C/c1ccc(C(=O)O)cc1)C(C)(C)CCS2(=O)=O", "note": "[Ro-41-5253]", "values": [{"measurement": "ES cell differentiation induced by RA", "setting": "[3]", "result": "block ES cell differentiation"}]}
{"molecule": "Cc1c[nH]c(/C=C2\\C(=O)Nc3ccccc32)c1CCC(=O)O", "note": "[SU54021]", "values": [{"measurement": "growth and pluripotency gene expression of human iPSCs in the presence of the agent", "setting": "[4]", "result": "grew well and kept pluripotency gene expression"}, {"measurement": "growth and pluripotency gene expression of human iPSCs in the presence of the agent", "setting": "[4]; listed as FGFRi", "result": "Robust expression of pluripotency genes"}]}
{"molecule": "BMP4: BMP4 added to human iPSC culture", "values": [{"measurement": "growth and pluripotency gene expression of human iPSCs in the presence of the agent", "setting": "[4]", "result": "proliferated well"}]}
